Test: Solubility of M4N in water-insoluble lipids (visual inspection)
Assay type: physicochemical

COc1ccc(C[C@@H](C)[C@@H](C)Cc2ccc(OC)c(OC)c2)cc1OC [Formulation M4N, meso-1,4-bis(3,4-dimethoxyphenyl)-2,3-dimethylbutane]
Y at 60 °C: Dissolution After Heating (75% Sesame Oil, 9% Tween ® 20, 16% Glycerol, M4N 24.3 mg/mL, 60° C.) | Dissolution After Heating (89% Sesame Oil, 11% Tween ® 20, M4N 29 mg/mL, 60° C.) | Dissolution After Heating (100% Corn Oil, M4N 1 mg/mL, 60° C.) | Dissolution After Heating (100% Corn Oil, M4N 10 mg/mL, 60° C.) | Dissolution After Heating (100% Corn Oil, M4N 20 mg/mL, 60° C.) | Dissolution After Heating (100% Corn Oil, M4N 40 mg/mL, 60° C.) | Dissolution After Heating (100% Corn Oil, M4N 50 mg/mL, 60° C.) | Dissolution After Heating (100% Corn Oil, M4N 60 mg/mL, 60° C.) | Dissolution After Heating (100% Corn Oil, M4N 100 mg/mL, 60° C.) | Dissolution After Heating (100% Mineral Oil, M4N 10 mg/mL, 60° C.) | Dissolution After Heating (100% Mineral Oil, M4N 50 mg/mL, 60° C.) | Dissolution After Heating (100% Mineral Oil, M4N 100 mg/mL, 60° C.) | Dissolution After Heating (100% Mineral Oil, M4N 200 mg/mL, 60° C.)
Y at 70 °C: Dissolution After Heating (80% Olive Oil, 20% Soybean Oil, M4N 60 mg/mL, 70° C.)
Y at 40 °C: Dissolution After Heating (33% Peppermint Oil, 33% Tween ® 20, 33% PEG 400, M4N 60 mg/mL, 40° C.) | Dissolution After Heating (40% Peppermint Oil, 40% PEG 400, 20% Glycerol, M4N 52 mg/mL, 40° C.) | Dissolution After Heating (45% Peppermint Oil, 45% PEG 400, 10% Glycerol, M4N 59 mg/mL, 40° C.) | Dissolution After Heating (50% Peppermint Oil, 50% PEG 400, M4N 40 mg/mL, 40° C.) | Dissolution After Heating (50% Peppermint Oil, 50% PEG 400, M4N 60 mg/mL, 40° C.) | Dissolution After Heating (50% Peppermint Oil, 50% PEG 400, M4N 100 mg/mL, 40° C.) | Dissolution After Heating (50% Peppermint Oil, 50% PEG 400, M4N 125 mg/mL, 40° C.) | Dissolution After Heating (50% Peppermint Oil, 50% Sesame Oil, M4N 40 mg/mL, 40° C.) | Dissolution After Heating (50% Peppermint Oil, 50% Sesame Oil, M4N 60 mg/mL, 40° C.) | Dissolution After Heating (50% Peppermint Oil, 50% Tween ® 20, M4N 40 mg/mL, 40° C.) | Dissolution After Heating (50% Peppermint Oil, 50% Tween ® 20, M4N 60 mg/mL, 40° C.) | Dissolution After Heating (50% Peppermint Oil, 50% Tween ® 20, M4N 125 mg/mL, 40° C.) | Dissolution After Heating (60% Peppermint Oil, 40% PEG 300, M4N 60 mg/mL, 40° C.) | Dissolution After Heating (60% Peppermint Oil, 40% PEG 400, M4N 60 mg/mL, 40° C.)
Y at 45 °C: Dissolution After Heating (85% Sesame Oil, 15% Tween ® 20, M4N 40 mg/mL, 45° C.)
<3 days: Stability Time at Room Temperature (100% Corn Oil, M4N 20 mg/mL) | Stability Time at Room Temperature (100% Corn Oil, M4N 40 mg/mL) | Stability Time at Room Temperature (100% Corn Oil, M4N 50 mg/mL)
Y at 55 °C: Dissolution After Heating (85% Sesame Oil, 15% Tween ® 20, M4N 60 mg/mL, 55° C.)
<7 days: Stability Time at Room Temperature (75% Sesame Oil, 9% Tween ® 20, 16% Glycerol, M4N 24.3 mg/mL)
>7 days: Stability Time at Room Temperature (50% Peppermint Oil, 50% PEG 300, M4N 40 mg/mL) | Stability Time at Room Temperature (50% Peppermint Oil, 50% PEG 300, M4N 60 mg/mL) | Stability Time at Room Temperature (50% Peppermint Oil, 50% PEG 400, M4N 40 mg/mL) | Stability Time at Room Temperature (50% Peppermint Oil, 50% PEG 400, M4N 60 mg/mL) | Stability Time at Room Temperature (89% Sesame Oil, 11% Tween ® 20, M4N 29 mg/mL) | Stability Time at Room Temperature (100% Mineral Oil, M4N 10 mg/mL)
<1 days: Stability Time at Room Temperature (100% Corn Oil, M4N 60 mg/mL) | Stability Time at Room Temperature (100% Mineral Oil, M4N 50 mg/mL)
Y at 35 °C: Dissolution After Heating (50% Peppermint Oil, 50% PEG 300, M4N 40 mg/mL, 35° C.) | Dissolution After Heating (50% Peppermint Oil, 50% PEG 300, M4N 60 mg/mL, 35° C.) | Dissolution After Heating (50% Peppermint Oil, 50% PEG 300, M4N 125 mg/mL, 35° C.)
did not stay in solution: solution upon cooling (85% sesame oil and 15% Tween® 20, M4N 60 mg/mL (55° C.) and 40 mg/mL (45° C.))
>3 days: Stability Time at Room Temperature (33% Peppermint Oil, 33% Tween ® 20, 33% PEG 400, M4N 60 mg/mL) | Stability Time at Room Temperature (50% Peppermint Oil, 50% Sesame Oil, M4N 20 mg/mL) | Stability Time at Room Temperature (50% Peppermint Oil, 50% Sesame Oil, M4N 40 mg/mL) | Stability Time at Room Temperature (50% Peppermint Oil, 50% Sesame Oil, M4N 60 mg/mL) | Stability Time at Room Temperature (50% Peppermint Oil, 50% Tween ® 20, M4N 40 mg/mL) | Stability Time at Room Temperature (50% Peppermint Oil, 50% Tween ® 20, M4N 60 mg/mL) | Stability Time at Room Temperature (60% Peppermint Oil, 40% PEG 300, M4N 60 mg/mL) | Stability Time at Room Temperature (100% Corn Oil, M4N 1 mg/mL) | Stability Time at Room Temperature (100% Corn Oil, M4N 10 mg/mL)

Reference: patent US20080096967A1, “Formulations for Injection of Catecholic Butanes, Including Ndga Compounds, Into Animals” (priority 2005, published 2008)
